Measurements reported in ChEMBL document CHEMBL1130865, “Carbaxylosides of 4-ethyl-2-oxo-2H-benzopyran-7-yl as non-hydrolyzable, orally active venous antithrombotic agents” (1998).

What was measured:
Rattus norvegicus [1] = assay: Antithrombotic activity was determined in rat upon oral administration at dose 20 mg/kg (4 hours before); format: functional
Rattus norvegicus [2] = assay: Antithrombotic activity was determined in rat upon oral administration at dose 3 mg/kg (4 hours before); format: functional

Compound | Activity (Rattus norvegicus [1]) [%] | Activity (Rattus norvegicus [2]) [%]
CCc1cc(=O)oc2cc(OC3CCC(O)[C@H](O)[C@H]3O)ccc12 (some centres undefined) | 20 | –
CCc1cc(=O)oc2cc(OC3OCC(O)[C@H](O)[C@H]3O)ccc12 (some centres undefined) | – | 71
CCc1cc(=O)oc2cc(OC3SCC(O)[C@H](O)[C@H]3O)ccc12 (some centres undefined) | – | 71
CCc1cc(=O)oc2cc(OC3CCC(O)C(O)C3O)ccc12 (single isomer, unassigned; (-)) | 96 | –
